Data as given in PubChem BioAssay (NCI).
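1) Cells in 96-well plates. 2) Compound, 48 h, 5 concentrations. 3) Linear interpolation between surrounding doses. 4) Unreached endpoint = highest concentration. GI50 = concentration required for 50% inhibition of growth. Definition used: TGI = concentration required for complete inhibition of growth.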

How the values were obtained:
Experiment in all cases: NCI anticancer screen, dose series, 48 h
UACC-62 melanoma = system: UACC-62 melanoma
SN12C renal = system: SN12C renal
U251 CNS = system: U251 CNS
T-47D breast = system: T-47D breast
NCI-H460 lung = system: NCI-H460 lung
OVCAR-4 ovarian = system: OVCAR-4 ovarian
M14 melanoma = system: M14 melanoma
IGROV1 ovarian = system: IGROV1 ovarian
MDA-MB-435 = system: MDA-MB-435
RPMI-8226 leukemia = system: RPMI-8226 leukemia
SK-OV-3 ovarian = system: SK-OV-3 ovarian
OVCAR-5 ovarian = system: OVCAR-5 ovarian
NCI-H226 lung = system: NCI-H226 lung
K-562 leukemia = system: K-562 leukemia
SK-MEL-2 melanoma = system: SK-MEL-2 melanoma
CAKI-1 renal = system: CAKI-1 renal
BT-549 breast = system: BT-549 breast
HCC-2998 colon = system: HCC-2998 colon
HOP-92 NSCLC = system: HOP-92 NSCLC
UACC-257 melanoma = system: UACC-257 melanoma
SK-MEL-28 melanoma = system: SK-MEL-28 melanoma
SNB-75 CNS = system: SNB-75 CNS
HT29 colon = system: HT29 colon
EKVX NSCLC = system: EKVX NSCLC
SR leukemia = system: SR leukemia
MALME-3M melanoma = system: MALME-3M melanoma
A549 NSCLC = system: A549 NSCLC
NCI/ADR-RES ovarian = system: NCI/ADR-RES ovarian
SK-MEL-5 melanoma = system: SK-MEL-5 melanoma
HL-60(TB) leukemia = system: HL-60(TB) leukemia
KM12 colon = system: KM12 colon
SF-539 CNS = system: SF-539 CNS
NCI-H522 lung = system: NCI-H522 lung
DU-145 prostate = system: DU-145 prostate
HS 578T breast = system: HS 578T breast
UO-31 renal = system: UO-31 renal
HCT-15 colon = system: HCT-15 colon
SF-268 CNS = system: SF-268 CNS
HCT-116 colon = system: HCT-116 colon
TK-10 renal = system: TK-10 renal
NCI-H23 lung = system: NCI-H23 lung
MDA-MB-468 breast = system: MDA-MB-468 breast
A498 renal = system: A498 renal
SW-620 colon = system: SW-620 colon
SNB-19 CNS = system: SNB-19 CNS
OVCAR-8 ovarian = system: OVCAR-8 ovarian
COLO 205 colon = system: COLO 205 colon
PC-3 prostate = system: PC-3 prostate
HOP-62 NSCLC = system: HOP-62 NSCLC
SF-295 CNS = system: SF-295 CNS
MCF7 breast = system: MCF7 breast
ACHN renal = system: ACHN renal
LOX IMVI melanoma = system: LOX IMVI melanoma
786-0 renal = system: 786-0 renal
MOLT-4 leukemia = system: MOLT-4 leukemia
CCRF-CEM leukemia = system: CCRF-CEM leukemia
MDA-MB-231 breast = system: MDA-MB-231 breast
RXF 393 renal = system: RXF 393 renal
OVCAR-3 ovarian = system: OVCAR-3 ovarian

## C=C(c1ccc(OC)c(N)c1)c1cc(C)nc2ccccc12
UACC-62 melanoma
  GI50: < 0.01 µM
  TGI: 22.4 µM
SN12C renal
  GI50: < 0.01 µM
  TGI: > 44.9 µM
U251 CNS
  GI50: < 0.01 µM
  TGI: > 100 µM
T-47D breast
  GI50: 12.6 µM
  TGI: > 100 µM
NCI-H460 lung
  GI50: < 0.01 µM
  TGI: > 32 µM
OVCAR-4 ovarian
  GI50: 7.41 µM
  TGI: > 100 µM
M14 melanoma
  GI50: < 0.01 µM
  TGI: 15.2 µM
IGROV1 ovarian
  GI50: < 0.01 µM
  TGI: > 100 µM
MDA-MB-435
  GI50: < 0.01 µM
  TGI: 0.118 µM
RPMI-8226 leukemia
  GI50: < 0.01 µM
  TGI: 21.3 µM
SK-OV-3 ovarian
  GI50: < 0.01 µM
OVCAR-5 ovarian
  GI50: < 0.01 µM
  TGI: > 100 µM
NCI-H226 lung
  GI50: < 0.0115 µM
  TGI: > 100 µM
K-562 leukemia
  GI50: < 0.01 µM
  TGI: > 93 µM
SK-MEL-2 melanoma
  GI50: < 0.01 µM
  TGI: < 0.01 µM
CAKI-1 renal
  GI50: < 0.01 µM
  TGI: > 96.2 µM
BT-549 breast
  GI50: < 0.01 µM
HCC-2998 colon
  GI50: < 0.01 µM
  TGI: 0.466 µM
HOP-92 NSCLC
  GI50: 0.18 µM
  TGI: 43 µM
UACC-257 melanoma
  GI50: 3.98 µM
  TGI: 75 µM
SK-MEL-28 melanoma
  GI50: < 0.01 µM
  TGI: 98.2 µM
SNB-75 CNS
  GI50: < 0.01 µM
  TGI: 83.7 µM
HT29 colon
  GI50: < 0.01 µM
  TGI: < 0.01 µM
EKVX NSCLC
  GI50: < 0.01 µM
  TGI: > 51.6 µM
SR leukemia
  GI50: < 0.01 µM
  TGI: 34.6 µM
MALME-3M melanoma
  GI50: < 0.01 µM
  TGI: 31.6 µM
A549 NSCLC
  GI50: < 0.01 µM
  TGI: > 100 µM
NCI/ADR-RES ovarian
  GI50: < 0.01 µM
  TGI: < 0.01 µM
SK-MEL-5 melanoma
  GI50: < 0.01 µM
  TGI: < 0.01 µM
HL-60(TB) leukemia
  GI50: < 0.01 µM
  TGI: < 0.01 µM
KM12 colon
  GI50: < 0.01 µM
  TGI: 11.5 µM
SF-539 CNS
  GI50: < 0.01 µM
  TGI: < 0.01 µM
NCI-H522 lung
  GI50: < 0.01 µM
  TGI: < 0.01 µM
DU-145 prostate
  GI50: < 0.01 µM
  TGI: > 100 µM
HS 578T breast
  GI50: < 0.01 µM
  TGI: > 100 µM
UO-31 renal
  GI50: < 0.01 µM
  TGI: 64.6 µM
HCT-15 colon
  GI50: < 0.01 µM
SF-268 CNS
  GI50: < 0.01 µM
  TGI: 37.4 µM
HCT-116 colon
  GI50: < 0.01 µM
  TGI: > 100 µM
TK-10 renal
  GI50: 18.7 µM
  TGI: > 100 µM
NCI-H23 lung
  GI50: < 0.01 µM
  TGI: 36.1 µM
MDA-MB-468 breast
  GI50: < 0.01 µM
  TGI: 76.3 µM
A498 renal
  GI50: 36.8 µM
  TGI: > 100 µM
SW-620 colon
  GI50: < 0.01 µM
  TGI: > 100 µM
SNB-19 CNS
  GI50: < 0.01 µM
  TGI: > 100 µM
OVCAR-8 ovarian
  GI50: < 0.01 µM
COLO 205 colon
  GI50: < 0.01 µM
  TGI: < 0.01 µM
PC-3 prostate
  GI50: < 0.01 µM
  TGI: > 100 µM
HOP-62 NSCLC
  GI50: < 0.01 µM
  TGI: > 100 µM
SF-295 CNS
  GI50: < 0.01 µM
MCF7 breast
  GI50: < 0.01 µM
  TGI: > 37.1 µM
ACHN renal
  GI50: < 0.01 µM
  TGI: 61.9 µM
LOX IMVI melanoma
  GI50: < 0.01 µM
  TGI: 27.4 µM
786-0 renal
  GI50: < 0.01 µM
  TGI: > 100 µM
MOLT-4 leukemia
  GI50: < 0.01 µM
  TGI: 26.6 µM
CCRF-CEM leukemia
  GI50: < 0.01 µM
MDA-MB-231 breast
  GI50: < 0.01 µM
  TGI: < 0.01 µM
RXF 393 renal
  GI50: < 0.01 µM
  TGI: 79 µM

## O=C(Cn1c(-c2ccccc2)nc2ccccc21)N=Nc1c(O)[nH]c2ccc(Br)cc12
UACC-62 melanoma
  GI50: 12.1 µM
  TGI: 25.9 µM
SN12C renal
  GI50: 16.2 µM
  TGI: 41.8 µM
U251 CNS
  GI50: 16.2 µM
  TGI: 31.7 µM
T-47D breast
  GI50: 11.5 µM
  TGI: 33.8 µM
NCI-H460 lung
  GI50: 16.8 µM
  TGI: 35 µM
OVCAR-4 ovarian
  GI50: 15.9 µM
  TGI: 36.5 µM
M14 melanoma
  GI50: 18.8 µM
  TGI: 52.3 µM
IGROV1 ovarian
  GI50: 12 µM
  TGI: 29.7 µM
MDA-MB-435
  GI50: 5.9 µM
  TGI: 21.3 µM
RPMI-8226 leukemia
  GI50: 35.6 µM
  TGI: > 100 µM
SK-OV-3 ovarian
  GI50: 16.6 µM
  TGI: 38.4 µM
OVCAR-5 ovarian
  GI50: 22.9 µM
  TGI: 81.4 µM
NCI-H226 lung
  GI50: 11.1 µM
  TGI: 28.3 µM
K-562 leukemia
  GI50: 9.48 µM
  TGI: > 100 µM
SK-MEL-2 melanoma
  GI50: 17 µM
  TGI: 42.9 µM
CAKI-1 renal
  GI50: 11.8 µM
  TGI: 25.7 µM
BT-549 breast
  GI50: 16 µM
  TGI: 36.9 µM
HCC-2998 colon
  GI50: 14.8 µM
  TGI: 31.3 µM
HOP-92 NSCLC
  GI50: 15.4 µM
  TGI: 34.2 µM
UACC-257 melanoma
  GI50: 15.2 µM
  TGI: 31.7 µM
SK-MEL-28 melanoma
  GI50: 17.8 µM
  TGI: 36.7 µM
SNB-75 CNS
  GI50: 9.46 µM
  TGI: 23.6 µM
HT29 colon
  GI50: 14.3 µM
  TGI: 30.4 µM
EKVX NSCLC
  GI50: 11.3 µM
  TGI: 34.1 µM
SR leukemia
  GI50: 6.04 µM
  TGI: > 100 µM
MALME-3M melanoma
  GI50: 12.3 µM
  TGI: 27.1 µM
A549 NSCLC
  GI50: 14.7 µM
  TGI: 34.8 µM
NCI/ADR-RES ovarian
  GI50: 15.4 µM
  TGI: 33.8 µM
SK-MEL-5 melanoma
  GI50: 13.9 µM
  TGI: 30.9 µM
HL-60(TB) leukemia
  GI50: 25.5 µM
  TGI: > 100 µM
KM12 colon
  GI50: 14.8 µM
  TGI: 52.9 µM
SF-539 CNS
  GI50: 14.4 µM
  TGI: 29.7 µM
NCI-H522 lung
  GI50: 7.31 µM
  TGI: 22.4 µM
DU-145 prostate
  GI50: 19.6 µM
  TGI: 42.3 µM
HS 578T breast
  GI50: 14.9 µM
  TGI: 47.3 µM
UO-31 renal
  GI50: 10 µM
  TGI: 26.8 µM
HCT-15 colon
  GI50: 12 µM
  TGI: 38.9 µM
SF-268 CNS
  GI50: 16.2 µM
  TGI: 38.3 µM
HCT-116 colon
  GI50: 18.2 µM
  TGI: 45.8 µM
TK-10 renal
  GI50: 21 µM
  TGI: 40.3 µM
NCI-H23 lung
  GI50: 16.3 µM
  TGI: 36.5 µM
MDA-MB-468 breast
  GI50: 2.54 µM
  TGI: 9.55 µM
A498 renal
  GI50: 16 µM
  TGI: 31.1 µM
SW-620 colon
  GI50: 18.1 µM
  TGI: 52.9 µM
SNB-19 CNS
  GI50: 17.3 µM
  TGI: 40.8 µM
OVCAR-8 ovarian
  GI50: 14.4 µM
  TGI: 31.1 µM
OVCAR-3 ovarian
  GI50: 14.3 µM
  TGI: 30.3 µM
COLO 205 colon
  GI50: 18.9 µM
  TGI: 46.2 µM
PC-3 prostate
  GI50: 15 µM
  TGI: 43.2 µM
HOP-62 NSCLC
  GI50: 14.6 µM
  TGI: 33 µM
SF-295 CNS
  GI50: 12.7 µM
  TGI: 28 µM
MCF7 breast
  GI50: 5.87 µM
  TGI: 25.6 µM
ACHN renal
  GI50: 15.6 µM
  TGI: 34.1 µM
LOX IMVI melanoma
  GI50: 15 µM
  TGI: 31.7 µM
786-0 renal
  GI50: 17.5 µM
  TGI: 34.7 µM
MOLT-4 leukemia
  GI50: 17.6 µM
  TGI: > 100 µM
CCRF-CEM leukemia
  GI50: 34.8 µM
  TGI: > 100 µM
MDA-MB-231 breast
  GI50: 12 µM
  TGI: 27.9 µM
RXF 393 renal
  GI50: 10.3 µM
  TGI: 23.9 µM
